Assay results as given in patent publication US20200361895A1, “NOVEL SULFONAMIDE CARBOXAMIDE COMPOUNDS” (Inflazome Limited, priority 2017, published 2020).
Structures can show the parent of a compound that is named as a salt.

Key:
NLRP3 [1] = target: T1, NLRP3 (Homo sapiens, UniProt Q96P20); assay: Human whole blood IL1β release assay (LPS + nigericin, AlphaLisa IL-1β; HWB IC50); type: cell-based; set-up: Human whole blood in Li-heparin tubes was obtained from healthy donors from a volunteer donor panel; from tissue; host or cells: human whole blood from healthy donors; details: IL-1β release
Description: For systemic delivery, the ability to inhibit NLRP3 when the compounds are present within the bloodstream is of great importance. For this reason, the NLRP3 inhibitory activity of a number of compounds in human whole blood was investigated in accordance with the following protocol.
Human whole blood in Li-heparin tubes was obtained from healthy donors from a volunteer donor panel. • 1. Plate out 80 μl of whole blood containing 1 μg/ml of LPS in 96-well, clear bottom cell culture plate (Corning #3585) • 2. Add 10 μl compound (8 points half-log dilution with 10 μM top dose) or vehicle (DMSO 0.1% FAC) to the appropriate wells • 3. Incubate for 3 hrs at 37° C., 5% CO2 • 4. Add 10 μl nigericin (Sigma #N7143) (10 μM FAC) to all wells • 5. Incubate for 1 hr at 37° C., 5% CO2 • 6. At the end of the incubation period, spin plates at 300×g for 5 mins to pellet cells and remove 20 μl of supernatant and add to 96-well v-bottom plates for IL-1β analysis (note: these plates containing the supernatants can be stored at −80° C. to be analysed at a later date) • 7. IL-1β was measured according to the manufacturer protocol (Perkin Elmer-AlphaLisa IL-1 Kit AL220F-5000) • 8. IC50 data is fitted to a non-linear regression equation (log inhibitor vs response-variable slope 4-parameters)

NLRP3 [2] = target: T1, NLRP3; assay: THP-1 cells pyroptosis assay (LPS + nigericin, resazurin readout; THP IC50); type: cell-based; set-up: Seed THP-1 cells (25,000 cells/well) containing 1.0 μg/ml LPS in 40 μl of RPMI medium; host or cells: THP-1 cells
In short: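 IC50 from 4-parameter fit of resazurin fluorescence (100 μM, 1-2 hrs), reflecting surviving cells after pyroptosis. LPS-primed (1 μg/ml) THP-1 cells in FBS-free RPMI got compound for 3 hrs at 37° C (top 10 μM, half-log, 8 points), then nigericin 5 μM for 1 hr.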

T1 sequence (Q96P20 whole entry): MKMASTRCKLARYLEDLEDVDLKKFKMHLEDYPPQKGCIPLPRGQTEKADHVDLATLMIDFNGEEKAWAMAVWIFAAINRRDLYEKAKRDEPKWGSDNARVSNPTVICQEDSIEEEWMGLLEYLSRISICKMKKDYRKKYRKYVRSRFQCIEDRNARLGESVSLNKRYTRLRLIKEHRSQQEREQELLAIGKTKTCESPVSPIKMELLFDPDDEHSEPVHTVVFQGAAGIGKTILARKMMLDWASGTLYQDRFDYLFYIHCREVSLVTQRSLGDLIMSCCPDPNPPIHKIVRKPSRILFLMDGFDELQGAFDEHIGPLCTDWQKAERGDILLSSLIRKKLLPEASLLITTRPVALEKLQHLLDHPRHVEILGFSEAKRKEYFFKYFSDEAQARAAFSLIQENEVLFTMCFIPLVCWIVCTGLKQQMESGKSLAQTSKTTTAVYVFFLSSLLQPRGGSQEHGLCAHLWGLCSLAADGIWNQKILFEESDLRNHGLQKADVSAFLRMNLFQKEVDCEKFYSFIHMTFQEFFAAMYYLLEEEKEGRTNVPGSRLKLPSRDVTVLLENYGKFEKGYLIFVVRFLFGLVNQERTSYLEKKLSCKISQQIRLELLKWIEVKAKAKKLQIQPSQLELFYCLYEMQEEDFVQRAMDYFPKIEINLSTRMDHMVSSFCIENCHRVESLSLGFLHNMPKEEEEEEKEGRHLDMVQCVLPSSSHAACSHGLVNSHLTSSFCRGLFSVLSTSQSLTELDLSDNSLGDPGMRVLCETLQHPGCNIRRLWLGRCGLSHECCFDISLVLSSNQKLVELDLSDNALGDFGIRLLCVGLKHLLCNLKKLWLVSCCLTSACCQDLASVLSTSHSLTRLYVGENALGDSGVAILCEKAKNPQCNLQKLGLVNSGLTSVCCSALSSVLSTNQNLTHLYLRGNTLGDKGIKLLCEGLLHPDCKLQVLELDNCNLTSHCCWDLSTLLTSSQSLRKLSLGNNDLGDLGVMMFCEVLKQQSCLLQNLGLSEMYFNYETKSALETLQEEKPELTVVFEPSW

Row | IC50 (NLRP3 [1]) [µM] | IC50 (NLRP3 [2]) [µM] | SMILES
1 | ≤ 1 | – | CCN1CCC(S(=O)(=O)NC(=O)Nc2c(-c3ccncc3)ccc3c2CCC3)CC1 [Example 101, 1-Ethyl-N-((5-(pyridin-4-yl)-2,3-dihydro-1H-inden-4-yl)carbamoyl)piperidine-4-sulfonamide, potassium salt]
2 | – | ≤ 10 | Cc1cc(-c2ccc3c(c2NC(=O)NS(=O)(=O)c2ccn(C(C)C)n2)CCC3)n(C)n1 [Example 220, N-((5-(1,3-Dimethyl-1H-pyrazol-5-yl)-2,3-dihydro-1H-inden-4-yl)carbamoyl)-1-isopropyl-1H-pyrazole-3-sulfonamide]
3 | – | ≤ 5 | COc1cc(-c2ccc3c(c2NC(=O)NS(=O)(=O)c2ccn(C(C)C)n2)CCC3)cc(C)n1 [Example 238, 1-Isopropyl-N-((5-(2-methoxy-6-methylpyridin-4-yl)-2,3-dihydro-1H-inden-4-yl)carbamoyl)-1H-pyrazole-3-sulfonamide, sodium salt]
4 | – | ≤ 5 | CC(C)n1ccc(S(=O)(=O)NC(=O)Nc2c(-c3cncn3C)ccc3c2CCC3)n1 [Example 240, 1-Isopropyl-N-((5-(1-methyl-1H-imidazol-5-yl)-2,3-dihydro-1H-inden-4-yl)carbamoyl)-1H-pyrazole-3-sulfonamide]
5 | – | ≤ 5 | CC(C)n1ccc(S(=O)(=O)NC(=O)Nc2c(-c3cncnc3)ccc3c2CCC3)n1 [Example 241, 1-Isopropyl-N-((5-(pyrimidin-5-yl)-2,3-dihydro-1H-inden-4-yl)carbamoyl)-1H-pyrazole-3-sulfonamide]
6 | – | ≤ 5 | O=C(Nc1c(C2CCOCC2)ccc2c1CCC2)NS(=O)(=O)c1ccn(C2CC2)n1 [Example 254, 1-Cyclopropyl-N-((5-(tetrahydro-2H-pyran-4-yl)-2,3-dihydro-1H-inden-4-yl)carbamoyl)-1H-pyrazole-3-sulfonamide]
7 | – | ≤ 1 | COc1cc(-c2ccc3c(c2NC(=O)NS(=O)(=O)OC(C)C)CCC3)ccn1 [Example 256, Isopropyl (5-(2-methoxypyridin-4-yl)-2,3-dihydro-1H-inden-4-yl)carbamoylsulfamate, sodium salt]
8 | – | ≤ 5 | Cn1cc(-c2ccc3c(c2NC(=O)NS(=O)(=O)c2ccn(C4CC4)n2)CCC3)ccc1=O [Example 268, 1-Cyclopropyl-N-((5-(1-methyl-6-oxo-1,6-dihydropyridin-3-yl)-2,3-dihydro-1H-inden-4-yl)carbamoyl)-1H-pyrazole-3-sulfonamide]
9 | – | ≤ 5 | Cn1ccc(-c2ccc3c(c2NC(=O)NS(=O)(=O)c2ccn(C4CC4)n2)CCC3)cc1=O [Example 272, 1-Cyclopropyl-N-((5-(1-methyl-2-oxo-1,2-dihydropyridin-4-yl)-2,3-dihydro-1H-inden-4-yl)carbamoyl)-1H-pyrazole-3-sulfonamide, sodium salt]
10 | – | ≤ 5 | O=C(Nc1c2c(nn1-c1ccncc1)CCC2)NS(=O)(=O)c1ccn(C2CC2)n1 [Example 273, 1-Cyclopropyl-N-((2-(pyridin-4-yl)-2,4,5,6-tetrahydrocyclopenta[c]pyrazol-3-yl)carbamoyl)-1H-pyrazole-3-sulfonamide]
11 | – | ≤ 5 | CC(C)n1ccc(S(=O)(=O)NC(=O)Nc2c(-c3ccnc4c3CCO4)ccc3c2CCC3)n1 [Example 283, N-((5-(2,3-Dihydrofuro[2,3-b]pyridin-4-yl)-2,3-dihydro-1H-inden-4-yl)carbamoyl)-1-isopropyl-1H-pyrazole-3-sulfonamide]
12 | – | ≤ 1 | CC(=O)Nc1cc(-c2ccc3c(c2NC(=O)NS(=O)(=O)c2ccn(C(C)C)n2)CCC3)ccn1 [Example 297, N-(4-(4-(3-((1-Isopropyl-1H-pyrazol-3-yl)sulfonyl)ureido)-2,3-dihydro-1H-inden-5-yl)pyridin-2-yl)acetamide, sodium salt]
13 | – | ≤ 1 | CC(C)n1ccc(S(=O)(=O)NC(=O)Nc2c(-c3ccnc(OC4CCN(C)C4)c3)ccc3c2CCC3)n1 (centres unmarked) [Example 301, 1-Isopropyl-N-((5-(2-((1-methylpyrrolidin-3-yl)oxy)pyridin-4-yl)-2,3-dihydro-1H-inden-4-yl)carbamoyl)-1H-pyrazole-3-sulfonamide, sodium salt]
14 | – | ≤ 5 | CC(C)n1ccc(S(=O)(=O)NC(=O)Nc2c(-c3ccnc(OCCN(C)C)c3)ccc3c2CCC3)n1 [Example 302, N-((5-(2-(2-(Dimethylamino)ethoxy)pyridin-4-yl)-2,3-dihydro-1H-inden-4-yl)carbamoyl)-1-isopropyl-1H-pyrazole-3-sulfonamide, sodium salt]
15 | – | ≤ 5 | COc1cc(-n2nc3c(c2NC(=O)NS(=O)(=O)c2cc(C(C)(C)O)co2)CCC3)ccn1 [Example 322, 4-(2-Hydroxypropan-2-yl)-N-((2-(2-methoxypyridin-4-yl)-2,4,5,6-tetrahydrocyclopenta[c]pyrazol-3-yl)carbamoyl)furan-2-sulfonamide]

The remaining lines, values behind:

Row | SMILES | IC50 (NLRP3 [1]) [µM] | IC50 (NLRP3 [2]) [µM]
16 | COc1cc(-c2cc(F)cc(C(C)C)c2NC(=O)NS(=O)(=O)c2ccn(C(C)C)n2)ccn1 [Example 12, N-((4-Fluoro-2-iso-propyl-6-(2-methoxypyridin-4-yl)phenyl)carbamoyl)-1-iso-propyl-1H-pyrazole-3-sulfonamide, partial ammonium salt] | ≤ 1 | ≤ 0.5
17 | CC(C)c1cc(F)cc(-c2ccnc(N)c2)c1NC(=O)NS(=O)(=O)c1ccn(C(C)C)n1 [Example 23, N-((2-(2-Aminopyridin-4-yl)-4-fluoro-6-isopropylphenyl)carbamoyl)-1-iso-propyl-1H-pyrazole-3-sulfonamide] | ≤ 1 | ≤ 0.5
18 | CCOc1cc(-c2cc(F)cc(C(C)C)c2NC(=O)NS(=O)(=O)c2ccn(C(C)C)n2)ccn1 [Example 24, N-((2-(2-Ethoxypyridin-4-yl)-4-fluoro-6-iso-propylphenyl)carbamoyl)-1-iso-propyl-1H-pyrazole-3-sulfonamide] | ≤ 1 | ≤ 0.5
19 | CC(C)Oc1cc(-c2cc(F)cc(C(C)C)c2NC(=O)NS(=O)(=O)c2ccn(C(C)C)n2)ccn1 [Example 27, N-((4-Fluoro-2-(2-isopropoxypyridin-4-yl)-6-iso-propyl-phenyl)carbamoyl)-1-iso-propyl-1H-pyrazole-3-sulfonamide] | ≤ 5 | ≤ 0.5
20 | CC(C)c1cc(F)cc(-c2cncnc2)c1NC(=O)NS(=O)(=O)c1cc(C(=O)N(C)C)n(C)n1 [Example 32, 3-(N-((4-Fluoro-2-iso-propyl-6-(pyrimidin-5-yl)phenyl)carbamoyl)sulfamoyl)-N,N,1-trimethyl-1H-pyrazole-5-carboxamide, sodium salt] | ≤ 0.5 | ≤ 0.5
21 | COC(C)(C)c1cc(S(=O)(=O)NC(=O)Nc2c(-c3cccnc3)cc(F)cc2C(C)C)nn1C [Example 35, N-((4-Fluoro-2-iso-propyl-6-(pyridin-3-yl)phenyl)carbamoyl)-5-(2-methoxypropan-2-yl)-1-methyl-1H-pyrazole-3-sulfonamide] | ≤ 1 | ≤ 0.5
22 | CC(C)c1cc(F)cc(-c2cccc(C#N)c2)c1NC(=O)NS(=O)(=O)c1cc(CN(C)C)n(C(C)C)n1 [Example 39, N-((3′-Cyano-5-fluoro-3-iso-propyl-[1,1′-biphenyl]-2-yl)carbamoyl)-5-((dimethylamino)methyl)-1-isopropyl-1H-pyrazole-3-sulfonamide] | ≤ 1 | ≤ 1
23 | CC(C)c1cc(F)cc(-c2ccccc2)c1NC(=O)NS(=O)(=O)c1cc(CN(C)C)n(C)n1 [Example 40, 5-((Dimethylamino)methyl)-N-((5-fluoro-3-iso-propyl-[1,1′-biphenyl]-2-yl)carbamoyl)-1-methyl-1H-pyrazole-3-sulfonamide] | ≤ 1 | ≤ 0.5
24 | CC(C)c1cc(F)cc(-c2cccnc2)c1NC(=O)NS(=O)(=O)c1cc(CN(C)C)n(C(C)C)n1 [Example 41, 5-((Dimethylamino)methyl)-N-((4-fluoro-2-iso-propyl-6-(pyridin-3-yl)phenyl)carbamoyl)-1-iso-propyl-1H-pyrazole-3-sulfonamide] | ≤ 1 | ≤ 0.5
25 | COc1cc(-c2ccc3c(c2NC(=O)NS(=O)(=O)c2ccc(C(=O)N(C)C)cc2)CCO3)ccn1 [Example 309, 4-(N-((5-(2-Methoxypyridyl-4-yl)-2,3-dihydrobenzofuran-4-yl)carbamoyl)sulfamoyl)-N,N-dimethylbenzamide, sodium salt] | – | ≤ 5
26 | CC(C)c1cc(F)cc(-c2ccnc(C#N)c2)c1NC(=O)NS(=O)(=O)N1CC2CCN(C)C2C1 (centres unmarked) [Example 319, N-((2-(2-Cyanopyridin-4-yl)-4-fluoro-6-isopropylphenyl)carbamoyl)-1-methylhexahydropyrrolo[3,4-b]pyrrole-5(1H)-sulfonamide] | – | ≤ 10
